Data on 2 compounds can be found in US7745651B2, “Cationic lipids and methods of use” (Protiva Biotherapeutics, Inc., priority 2004, dated 2010).

Structures are written as SMILES. Where “and” joins values, the source holds several entries; their conditions need not be identical. Identical values can stand only once. Entries after “also recorded” stand apart in the source; their conditions may differ.

Series [1] is described as follows: SNALP particle diameter and polydispersity, Malvern Zetasizer. The format is physicochemical. Particulars: SNALP DSPC:Chol:PEG-C-DMA:Cationic Lipid 20:48:2:30 molar percent; mean of 3 experiments, error is standard deviation. The procedure: SNALP Preparation: SNALP with a lipid composition of DSPC:Chol:PEG-C-DMA:Cationic Lipid (20:48:2:30 molar percent) were prepared using the spontaneous vesicle formation by ethanol dilution method [Jeffs et al., Pharm. Res. In Press (2005)]. The sample's were diafiltered against 100 mL of PBS (20 wash volumes) using a cross flow ultrafiltration cartridge (Amersham Biosciences, Piscataway, N.J.) and sterile filtered through Acrodisc 0.2 μm Posidyne filters (Pall Corp., Ann Arbor, Mich.). The siRNA concentration of final samples was determined using the RiboGreen assay and a siRNA standard curve. Particle size and polydispersity was determined using a Malvern Instruments Zetasizer 3000HSA (Malvern, UK). Nucleic acid encapsulation was determined using a RiboGreen assay, comparing fluorescence in the presence and absence of Triton X-100. RiboGreen fluorescence was measured using a Varian Eclipse Spectrofluorometer (Varian Inc) with λex=500 nm, λem=525 nm.
This example sets forth the physical properties of the SNALP formulations described herein. SNALP containing the various cationic lipids were prepared as described and encapsulated RNA and particle size assessed (Table 1 below). […] Polydispersity of all formulations was low, indicating a narrow distribution of particle size. RNA encapsulation in the final particles was 84-85% of the total.
Percentage Encapsulation was determined using the RiboGreen fluorescence assay to measure the amount of encapsulated nucleic acid relative to the total nucleic acid present. Particle diameter and polydispersity was measured using a Malvern Zetasizer. Values are the mean of 3 separate experiments, the error is standard deviation.

The test system of series [2] is luciferase expression in Neuro2A-G cells (Neuro2A cells stably transfected to express luciferase). Description: In vitro transfection: luciferase gene silencing by SNALP encapsulating anti-luciferase siRNA. The format is cell-based. Conditions: SNALP with anti-luciferase siRNA; for knockdown in gene expression (luciferase) versus control SNALP containing mismatch siRNA: Neuro2A cells stably expressing luciferase, 48 hours; for luciferase expression relative to untreated control: after 48 hours. The procedure:
In vitro Transfection: Cells were cultured in MEM (Invitrogen) containing 10% fetal bovine serum (FBS) (CanSera) and 0.25 mg/mL G418 (Invitrogen). Neuro2A-G cells (Neuro2A cells stably transfected to express luciferase [R. E. Kingston. in Current Protocols in Molecular Biology, Vol. 2, pp. 9.1.4-9.1.9, John Wiley & Sons, Inc. (1997)]) were plated at a concentration of 4×10^4 cells per well in 24-well plates and grown overnight. Cells were treated with SNALP at doses of 0.0625-1.0 μg/mL nucleic acid (AntiLuc Active or Mismatch Control) and incubated for 48 hours at 37° C. and 5% CO2. Cells were then washed with PBS and lysed with 200 μL 250 mM sodium phosphate containing 0.1% Triton X-100. The luciferase activity for each well was determined using Luciferase Reagent (Promega) and a standard luciferase protein (Roche). The luminescence for each was measured using a Berthold MicroLumatPlus LB96V plate luminometer. The resulting luciferase activity was then normalized for the amount of protein using the Micro BCA assay kit (Pierce). Luciferase knockdown relative to a control was then determined for each system.
This example describes experiments comparing expression of nucleic acids following in vitro transfection of Neuro2A cells with SNALP comprising: (1) DODAC, DODMA, or DLinDMA; (2) PEG-C-DMA; and (3) an siRNA duplex directed against luciferase encapsulated in the SNALP (i.e., siRNA comprising the following sequence: […] (SEQ ID NO:1) and targeting the DNA sequence complementary to: […] (SEQ ID NO:3)). Neuro2A cells were stably transfected with a plasmid encoding luciferase under the control of the CMV promoter (pLO55). The stably transfected cells were then transfected with SNALP comprising: 15, 20, 25, 30, 35, or 40% of DODAC, DODMA, or DLinDMA; 2% PEG-C-DMA, and an siRNA duplex directed against luciferase encapsulated in the SNALP. Luciferase protein expression was measured 48 hours after transfection with SNALP.
The ability of SNALP containing each of the four cationic lipids (i.e., DSDMA, DODMA, DLinDMA, and DLenDMA) to effect gene silencing in stably transfected Neuro2A cells was evaluated. Neuro2A cells stably transfected to express the luciferase were treated with SNALP containing anti-luciferase siRNA for 48 hours. Gene-silencing efficiency was evaluated by comparing the remaining luciferase activity in these cells to that remaining in cells treated with control SNALP containing mismatch siRNA.

In another series the test system is Neuro2A cells. Put plainly: Cellular uptake of 3H-CHE-labeled SNALP. The format is cell-based. Conditions: 24 hours. The procedure: Cellular Uptake: SNALP were prepared incorporating the non-exchangeable tritium-labeled lipid cholesteryl hexadecyl ether (3H—CHE) (11.1 μCi/μmol total lipid) [Bally et al., in Liposome Technology, Vol. III, pp. 27-41, CRC Press (1993)]. Neuro2A cells (ATCC, VA, USA) were plated in 12 well plates at 1.6×10^5 cells per well in minimal essential media. The following day, media was removed and replaced with media containing radiolabelled SNALP at 0.5 μg/mL nucleic acid. After 24 hours, the media and unincorporated SNALP were removed, adherent cells gently washed 4 times with PBS, and then lysed with 600 μL Lysis Buffer (250 mM phosphate with 0.1% Triton X-100). The resulting cell lysate (500 μL) was added to glass scintillation vials containing 5 mL Picofluor 40 (Perkin Elmer) and ^3H—CHE was determined using a Beckman LS6500 scintillation counter (Beckman Instruments). The protein content of cell lysates was determined using the Micro BCA assay (Pierce). Uptake was expressed as a percentage of the total amount of activity applied to the cells per mg of cellular protein.
The extent to which formulations are taken up by cells was measured with SNALP incorporating ^3H-labeled CHE [Bally et al., in Liposome Technology, Vol. III, pp. 27-41, CRC Press (1993)]. […] Uptake is expressed as a percentage of the total activity applied to the cells. […]

Turning to `CC/C=C\C/C=C\C/C=C\CCCCCCCCOCC(CN(C)C)OCCCCCCCC/C=C\C/C=C\C/C=C\CC` (stereo not shown) [DLenDMA, 1,2-Dilinolenyloxy-N,N-dimethylaminopropane], in series [1], the “Diameter (nm)” value is on record as 132 ± 7 nm and the Polydispersity is on record as 0.13 ± 0.03. For the same compound, in series [2], the “knockdown in gene expression (luciferase) versus control SNALP containing mismatch siRNA” value is listed as “slightly less efficient than those containing DLinDMA” and the “luciferase expression relative to untreated control” value was found to be 32%. In addition, the “cellular uptake of 3H-CHE-labeled SNALP” value with Neuro2A cells is reported as “particularly limited; also recorded: limited when compared to that of the DLinDMA formulation”.
For the compound `CCCCCCCCCCCCCCCCCC[N+](C)(C)CCCCCCCCCCCCCCCCCC` [DSDMA, Distearyldimethylammonium], in series [1], the “Diameter (nm)” value was 180 nm and 182 ± 11 nm; the Polydispersity was determined as 0.15 ± 0.03. In series [2], the “knockdown in gene expression (luciferase) versus control SNALP containing mismatch siRNA” value is given as “no activity; also recorded: almost no capacity for effecting RNA interference” and the “luciferase expression relative to untreated control” value was “no effect on luciferase gene expression”. Moreover, the “cellular uptake of 3H-CHE-labeled SNALP” value with Neuro2A cells was “greatest degree of uptake; also recorded: taken up most readily”.
